Measured values published in patent US20070173493A1, “1-Oxadibenzo[e,h]azulenes for the treatment of central nervous system diseases and disorders” (Pliva-Istrazivacki Institut d.o.o., priority 2003, published 2007).

How the values were obtained:
5-HT2A receptor = target: T1, 5-HT2A receptor (Homo sapiens, UniProt P28223); test: radioligand binding assay for 5-HT2A receptor ([3H]-ketanserin competitive binding); settings: human cortex or recombinant 5-HT2A receptor expressed in CHO-K1 cells
T1 construct: expressed in transfected cells; host or cells: CHO-K1 (alternatively human cortex tissue)
T1 sequence (P28223 whole entry): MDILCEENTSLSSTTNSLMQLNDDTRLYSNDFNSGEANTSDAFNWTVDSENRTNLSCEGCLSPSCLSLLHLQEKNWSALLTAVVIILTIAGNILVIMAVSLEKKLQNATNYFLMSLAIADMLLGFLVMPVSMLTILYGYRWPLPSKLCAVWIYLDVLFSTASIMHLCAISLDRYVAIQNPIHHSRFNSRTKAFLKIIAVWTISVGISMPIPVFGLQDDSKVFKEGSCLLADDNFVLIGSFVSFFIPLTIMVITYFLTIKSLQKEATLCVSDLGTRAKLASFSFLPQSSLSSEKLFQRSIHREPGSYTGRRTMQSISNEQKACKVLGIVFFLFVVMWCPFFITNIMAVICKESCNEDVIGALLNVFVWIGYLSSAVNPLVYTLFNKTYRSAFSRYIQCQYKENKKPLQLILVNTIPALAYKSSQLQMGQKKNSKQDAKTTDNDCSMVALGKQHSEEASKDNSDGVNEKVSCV
Description: (§1) The effect of the compounds of the present invention on the neurochemical steady state was determined by in vitro investigations such as a radionuclide-marked radioligand binding assay for 5-HT2A (Bonhaus D. W. Br. J. Pharmacol. 1995, 115:622; Saucier C. J. Neurochem. 1997, 68:1998) and 5-HT2C receptors (Wolf W. A. J. Neurochem. 1997, 69:1449), in vitro binding assay for the σ1 receptor (Thomson W. and Donn R. Arthritis Res. 2002, 4: 302-306) and by in vivo investigations in a tail suspension test (Vogel H. G. and Vogel W. H. Drug Discovery and Evaluation Pharmacological Assays, Springer 1997, 304), in amphetamine-induced hyperlocomotion in mice (Millan M. J. et al, 1998 J Pharmacol. Exp. Ther. 287: 167-186), in a forced swim test in mice (Porsolt R. D. et al. Arch. Int. Pharmacodyn. 1977, 229:327-336), in meta-chlorophenyl piperazine (m-CPP) test on rats (Drug Dev. Res. 1989, 18:119-144), and in apomorphine, tryptamine, norepinephrine (ATN) test in rats (Arch. […]
(§2) A small concentration of a radioligand having a great affinity for binding to a receptor was incubated with a tissue sample enriched with a certain receptor (1-5 mg of tissue) in a buffered medium (0.2-5 mL). […] When a binding balance was achieved, the receptors to which the radioligand was bound were separated from those to which said ligand was not bound, and the radioactivity of the receptor/radioligand complex was measured. […]

5-HT2C receptor = target: T2, 5-HT2C receptor (Homo sapiens, UniProt P28335); test: radioligand binding assay for 5-HT2C receptor ([3H]-mesulergine competitive binding); settings: choroid plexus or recombinant 5-HT2C receptor expressed in CHO-K1 cells
T2 construct: expressed in transfected cells; host or cells: CHO-K1 (alternatively choroid plexus tissue)
T2 sequence (P28335 33-458): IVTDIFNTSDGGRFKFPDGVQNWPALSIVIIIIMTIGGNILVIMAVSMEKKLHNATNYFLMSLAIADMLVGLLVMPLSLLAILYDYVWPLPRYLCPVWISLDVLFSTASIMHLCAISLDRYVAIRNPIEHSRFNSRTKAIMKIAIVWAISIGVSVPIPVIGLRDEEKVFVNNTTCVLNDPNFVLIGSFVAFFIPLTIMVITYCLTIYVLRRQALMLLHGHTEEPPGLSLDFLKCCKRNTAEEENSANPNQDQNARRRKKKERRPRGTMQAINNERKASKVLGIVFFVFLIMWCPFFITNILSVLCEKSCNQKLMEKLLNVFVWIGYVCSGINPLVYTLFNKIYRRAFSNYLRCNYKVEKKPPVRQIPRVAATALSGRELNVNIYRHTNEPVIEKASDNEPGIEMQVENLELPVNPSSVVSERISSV
Description: as §1, §2

- IC50 (5-HT2A receptor; read-out: binding affinity to 5-HT2A serotonin receptor expressed as IC50 value): < 200 nM
- Ki (5-HT2A receptor; read-out: binding affinity to 5-HT2A serotonin receptor, Ki value): < 100 nM
- IC50 (5-HT2C receptor; read-out: binding affinity to 5-HT2C serotonin receptor expressed as IC50 value): < 200 nM
- Ki (5-HT2C receptor; read-out: binding affinity to 5-HT2C serotonin receptor, Ki value): < 100 nM
Compound: CN(C)CCOCc1cc2c(o1)-c1cc(Cl)ccc1Oc1ccccc1-2 [[2-(11-chloro-1,8-dioxa-dibenzo[e,h]azulen-2-ylmethoxy)-ethyl]-dimethyl-amine]
